Experiments:
[1] = system: Leukemia L1210; experiment: Activity against Leukemia L1210, intraperitoneal, increase in life span of mice; type: in vivo, female mice (BDF1 family); conditions: for O.D. (optimum dosage) / ILS30 / ED (maximum ILS) / ED30: ip once a day for 5 successive days; for O.D. (optimum dosage) / ED (maximum ILS): daily dosage giving maximum increase of life span; for ILS30 / ED30: daily dosage increasing average survival days by 30%; for Survivors after 60 days / Max. ILS % / Therapeutic ratio TR: ip; for Survivors after 60 days: 6-membered group; for Max. ILS %: 60-day observation, versus control; for Therapeutic ratio TR: O.D./ILS30; for ED (maximum ILS) / ED30: Mus musculus, L1210, ip; for ED (maximum ILS): read-out: O.D. (optimum dosage); for ED30: read-out: ILS30
Protocol: Tests were conducted in accordance with the method for measuring antitumor activity of National Cancer Center Tokyo (A, Hoshi et al, Farumashia 9 464 (1973)). Test compounds were each intraperitoneally (referred to as ip) or orally (referred to as op) administered once a day for 5 successive days to a 6-membered group of femal mice (BDF1 family, each weighing 20 to 23 g) 24 hours after 1×10^5 cells of Leukemia L1210 have been implantated into the abdominal cavities of the mice, and the effect was evaluated by comparing the survival days of treated groups with those of an untreated group of mice (control group) in 60-day observation. An increase percentage of life span (ILS%) was calculated from said average survival days compared with those of the control group. Further, therapeutic ratio (O.D./ILD30, referred to as T.R.) of each tested compound was calculated from the daily dosage of the compound necessary to increase said average survival days by 30% as compared with the control group (this dosage is referred to as ILS 30) and the daily dosage giving a maximum increase of life span to mice implantated with L1210 cells, namely an optimum dosage (referred to as O.D.). The results of five successive days intraperitoneal administrations of test compounds were shown in Tables I to III, and those of five successive oral administrations in Table IV.

[2] = Acute toxicity (LD50, Behrens-Karber method); type: in vivo, ICR mice; conditions: ip, mortality during 30 days; for LD50 at 720 h: mouse, in vivo
Protocol: Test compounds, dissolved or suspended in 0.5% aqueous CMC, were each intraperitoneally administered to ICR mice in a dose of 0.1 ml per 10 g body weight. LD50 (mg/kg) value of each test compound was calculated from the mortality of mice during 30 days by the Behrens-Karber method.

Molecule | O.D. (optimum dosage) [1] [mg/kg] | ILS30 [1] [mg/kg] | Survivors after 60 days [1] | Max. ILS % [1] [%] | Therapeutic ratio TR [1] | LD50 [2] [mg/kg] | ED (maximum ILS) [1] [mg/kg] | ED30 [1] [mg/kg] | LD50 at 720 h [2] [mg/kg] | LD50 ([2]; 43200 min) [mg/kg]
3-(2-methoxyethyl)-3-(1-methoxyethyl α-D-glucopyranose-3-yl)-1-(2-chloroethyl)-1-nitrosourea [Compound 80] | 200 | 4.17 | 5/6 | > 625 | 48.0 | 640 | – | – | – | –
CCCO[C@H]1O[C@H](CN(CC(C)C)C(=O)N(CCCl)N=O)[C@@H](O)[C@H](O)[C@H]1O [Compound 1, 3-isobutyl-3-(n-propyl α-D-glucopyranose-6-yl)-1-(2-chloroethyl)-1-nitrosourea] | – | – | 6/6 | > 700 | 40.5 | – | 120 | 2.96 | 340 | –
CO[C@H]1O[C@H](CO)[C@@H](O)[C@H](O)[C@H]1NC(=O)N(CCCl)N=O [Compound 2MCαG, 3-(methyl α-D-glucopyranose-2-yl)-1-(2-chloroethyl)-1-nitrosourea, reference compound] | – | – | 5/6 | > 625 | 13.2 | – | 15.2 | 1.15 | 46 | –
CCCCO[C@H]1O[C@H](CN(CCC)C(=O)N(CCCl)N=O)[C@@H](O)[C@H](O)[C@H]1O [Compound 5, 3-n-propyl-3-(n-butyl α-D-glucopyranose-6-yl)-1-(2-chloroethyl)-1-nitrosourea] | – | – | 6/6 | > 700 | 38.5 | – | 100 | 2.6 | 325 | –
CCCCO[C@H]1O[C@H](CN(CCCC)C(=O)N(CCCl)N=O)[C@@H](O)[C@H](O)[C@H]1O [Compound 6, 3-n-butyl-3-(n-butyl α-D-glucopyranose-6-yl)-1-(2-chloroethyl)-1-nitrosourea] | – | – | 6/6 | > 700 | 40.0 | – | 120 | 3 | 390 | –
CCCCN(C[C@H]1O[C@H](OC)[C@H](O)[C@@H](O)[C@@H]1O)C(=O)N(CCCl)N=O [Compound 6MCαGB, 3-n-butyl-3-(methyl α-D-glucopyranose-6-yl)-1-(2-chloroethyl)-1-nitrosourea, reference compound] | – | – | 4/6 | > 440 | 22.4 | – | 30 | 1.34 | 92 | –
CO[C@H]1O[C@H](CN(CCO)C(=O)N(CCCl)N=O)[C@@H](O)[C@H](O)[C@H]1O [Compound 6MCαGHE, 3-(2-hydroxyethyl)-3-(methyl α-D-glucopyranose-6-yl)-1-(2-chloroethyl)-1-nitrosourea, reference compound] | – | – | 4/6 | > 440 | 21.4 | – | 30 | 1.4 | 90 | –
CO[C@H]1O[C@H](CNC(=O)N(CCCl)N=O)[C@@H](O)[C@H](O)[C@H]1O [Compound 6MCαGM, 3-(methyl α-D-glucopyranose-6-yl)-1-(2-chloroethyl)-1-nitrosourea, reference compound] | 29.1 | 1.45 | 4/6 | > 450 | 20.1 | – | – | – | – | 88
CCCCCCN(C[C@H]1O[C@H](OCCCC)[C@H](O)[C@@H](O)[C@@H]1O)C(=O)N(CCCl)N=O [Compound 7, 3-n-hexyl-3-(n-butyl α-D-glucopyranose-6-yl)-1-(2-chloroethyl)-1-nitrosourea] | – | – | 5/6 | > 620 | 26.9 | – | 140 | 5.2 | 410 | –

Reference: patent US4593090A, “Novel nitrosourea compounds, method for preparing same, and pharmaceutical composition containing same” (Gogo Kimura, priority 1981, dated 1986)
